Measurements: the NIST ThermoML archive (doi:10.1021/je900387e)

Assay: xn = mol fraction of the nth substance listed
Settings: Liquid, Pycnometric method

CCCCBr [1-bromobutane] + O=C=O
Settings	mass density [kg/m3]
308.2 K, 6320 kPa, x1 = 0.1495	1011
308.2 K, 6620 kPa, x1 = 0.0989	890
308.2 K, 6840 kPa, x1 = 0.0989	897
308.2 K, 6850 kPa, x1 = 0.0683	834
308.2 K, 6930 kPa, x1 = 0.0683	836
308.2 K, 6980 kPa, x1 = 0.0683	838
308.2 K, 7040 kPa, x1 = 0.0989	903
308.2 K, 7050 kPa, x1 = 0.0683	842
308.2 K, 7090 kPa, x1 = 0.0461	805
308.2 K, 7090 kPa, x1 = 0.0683	845
308.2 K, 7160 kPa, x1 = 0.0683	848
308.2 K, 7230 kPa, x1 = 0.0461	811
308.2 K, 7240 kPa, x1 = 0.0683	850
308.2 K, 7350 kPa, x1 = 0.0683	854
308.2 K, 7350 kPa, x1 = 0.0989	910
308.2 K, 7380 kPa, x1 = 0.0245	712
308.2 K, 7390 kPa, x1 = 0.0461	817
308.2 K, 7400 kPa, x1 = 0.0245	711
308.2 K, 7400 kPa, x1 = 0.1495	1018
308.2 K, 7420 kPa, x1 = 0.0245	713
308.2 K, 7440 kPa, x1 = 0.0245	716
308.2 K, 7450 kPa, x1 = 0.0683	858
308.2 K, 7480 kPa, x1 = 0.0245	720
308.2 K, 7520 kPa, x1 = 0.0245	724
308.2 K, 7540 kPa, x1 = 0.0683	861
308.2 K, 7550 kPa, x1 = 0.0461	823
308.2 K, 7590 kPa, x1 = 0.0245	729
308.2 K, 7640 kPa, x1 = 0.0245	734
308.2 K, 7660 kPa, x1 = 0.0461	827
308.2 K, 7660 kPa, x1 = 0.0683	864
308.2 K, 7700 kPa, x1 = 0.0245	738
308.2 K, 7700 kPa, x1 = 0.0989	916
308.2 K, 7750 kPa, x1 = 0.0461	830
308.2 K, 7770 kPa, x1 = 0.0245	743
308.2 K, 7780 kPa, x1 = 0.0683	867
308.2 K, 7830 kPa, x1 = 0.0245	747
308.2 K, 7850 kPa, x1 = 0.0461	833
308.2 K, 7920 kPa, x1 = 0.0245	752
308.2 K, 7950 kPa, x1 = 0.0461	836
308.2 K, 8010 kPa, x1 = 0.0245	757
308.2 K, 8060 kPa, x1 = 0.0461	839
308.2 K, 8090 kPa, x1 = 0.0245	762
308.2 K, 8120 kPa, x1 = 0.0989	924
308.2 K, 8190 kPa, x1 = 0.0461	843
308.2 K, 8190 kPa, x1 = 0.1495	1026
308.2 K, 8200 kPa, x1 = 0.0245	767
308.2 K, 8300 kPa, x1 = 0.0245	772
308.2 K, 8420 kPa, x1 = 0.0245	777
308.2 K, 8610 kPa, x1 = 0.0989	930
308.2 K, 8620 kPa, x1 = 0.0245	785
308.2 K, 8840 kPa, x1 = 0.0245	793
308.2 K, 9040 kPa, x1 = 0.1495	1033
308.2 K, 9100 kPa, x1 = 0.0245	801
308.2 K, 9190 kPa, x1 = 0.0989	938
308.2 K, 9370 kPa, x1 = 0.0245	809
308.2 K, 9680 kPa, x1 = 0.0245	818
308.2 K, 9820 kPa, x1 = 0.0989	944
308.2 K, 9960 kPa, x1 = 0.1495	1041
308.2 K, 10040 kPa, x1 = 0.0245	827
308.2 K, 10130 kPa, x1 = 0.0989	948
308.2 K, 10420 kPa, x1 = 0.0245	835
308.2 K, 10860 kPa, x1 = 0.0245	844
308.2 K, 10920 kPa, x1 = 0.1495	1048
308.2 K, 11350 kPa, x1 = 0.0245	853
308.2 K, 11370 kPa, x1 = 0.1495	1051
308.2 K, 11880 kPa, x1 = 0.0245	863
308.2 K, 11910 kPa, x1 = 0.1495	1055
308.2 K, 12480 kPa, x1 = 0.0245	873
308.2 K, 12510 kPa, x1 = 0.1495	1060
308.2 K, 13080 kPa, x1 = 0.1495	1063
308.2 K, 13130 kPa, x1 = 0.0245	882
308.2 K, 13590 kPa, x1 = 0.0245	889
308.2 K, 13640 kPa, x1 = 0.1495	1067
308.2 K, 14140 kPa, x1 = 0.0245	896
308.2 K, 14210 kPa, x1 = 0.1495	1071
308.2 K, 14290 kPa, x1 = 0.0245	899
308.2 K, 14850 kPa, x1 = 0.1495	1075
308.2 K, 15150 kPa, x1 = 0.1495	1077
313.1 K, 6900 kPa, x1 = 0.1495	986
313.1 K, 7230 kPa, x1 = 0.0989	875
313.1 K, 7250 kPa, x1 = 0.1495	991
313.1 K, 7480 kPa, x1 = 0.0683	811
313.1 K, 7510 kPa, x1 = 0.1495	994
313.1 K, 7520 kPa, x1 = 0.0989	881
313.1 K, 7590 kPa, x1 = 0.0683	814
313.1 K, 7670 kPa, x1 = 0.0683	817
313.1 K, 7680 kPa, x1 = 0.0461	756
313.1 K, 7730 kPa, x1 = 0.0461	758
313.1 K, 7760 kPa, x1 = 0.0683	820
313.1 K, 7770 kPa, x1 = 0.1495	997
313.1 K, 7820 kPa, x1 = 0.0461	764
313.1 K, 7830 kPa, x1 = 0.0989	882
313.1 K, 7860 kPa, x1 = 0.0683	823
313.1 K, 7910 kPa, x1 = 0.0461	769
313.1 K, 7950 kPa, x1 = 0.0683	826
313.1 K, 7990 kPa, x1 = 0.0245	619
313.1 K, 8000 kPa, x1 = 0.0245	621
313.1 K, 8010 kPa, x1 = 0.0461	775
313.1 K, 8030 kPa, x1 = 0.0245	628
313.1 K, 8060 kPa, x1 = 0.0683	829
313.1 K, 8070 kPa, x1 = 0.0245	635
313.1 K, 8090 kPa, x1 = 0.1495	1001
313.1 K, 8100 kPa, x1 = 0.0245	641
313.1 K, 8100 kPa, x1 = 0.0461	780
313.1 K, 8140 kPa, x1 = 0.0245	649
313.1 K, 8170 kPa, x1 = 0.0683	832
313.1 K, 8170 kPa, x1 = 0.0989	893
313.1 K, 8190 kPa, x1 = 0.0245	656
313.1 K, 8240 kPa, x1 = 0.0245	663
313.1 K, 8240 kPa, x1 = 0.0461	786
313.1 K, 8290 kPa, x1 = 0.0683	835
313.1 K, 8300 kPa, x1 = 0.0245	671
313.1 K, 8360 kPa, x1 = 0.0245	679
313.1 K, 8360 kPa, x1 = 0.0461	791
313.1 K, 8390 kPa, x1 = 0.0683	838
313.1 K, 8430 kPa, x1 = 0.0245	687
313.1 K, 8460 kPa, x1 = 0.1495	1004
313.1 K, 8500 kPa, x1 = 0.0461	797
313.1 K, 8530 kPa, x1 = 0.0245	695
313.1 K, 8540 kPa, x1 = 0.0683	842
313.1 K, 8560 kPa, x1 = 0.0989	900
313.1 K, 8620 kPa, x1 = 0.0245	703
313.1 K, 8650 kPa, x1 = 0.0461	802
313.1 K, 8660 kPa, x1 = 0.0683	845
313.1 K, 8740 kPa, x1 = 0.0245	712
313.1 K, 8790 kPa, x1 = 0.0683	848
313.1 K, 8790 kPa, x1 = 0.1495	1008
313.1 K, 8840 kPa, x1 = 0.0461	808
313.1 K, 8860 kPa, x1 = 0.0245	720
313.1 K, 8930 kPa, x1 = 0.0683	851
313.1 K, 9010 kPa, x1 = 0.0245	729
313.1 K, 9030 kPa, x1 = 0.0989	907
313.1 K, 9040 kPa, x1 = 0.0461	814
313.1 K, 9110 kPa, x1 = 0.0683	854
313.1 K, 9180 kPa, x1 = 0.0245	738
313.1 K, 9240 kPa, x1 = 0.0461	820
313.1 K, 9260 kPa, x1 = 0.0683	858
313.1 K, 9380 kPa, x1 = 0.0245	748
313.1 K, 9440 kPa, x1 = 0.0683	861
313.1 K, 9470 kPa, x1 = 0.0461	826
313.1 K, 9480 kPa, x1 = 0.0989	913
313.1 K, 9540 kPa, x1 = 0.1495	1015
313.1 K, 9580 kPa, x1 = 0.0683	864
313.1 K, 9600 kPa, x1 = 0.0245	758
313.1 K, 9710 kPa, x1 = 0.0461	833
313.1 K, 9790 kPa, x1 = 0.0683	868
313.1 K, 9850 kPa, x1 = 0.0245	767
313.1 K, 9950 kPa, x1 = 0.1495	1018
313.1 K, 9990 kPa, x1 = 0.0461	840
313.1 K, 10020 kPa, x1 = 0.0989	920
313.1 K, 10150 kPa, x1 = 0.0245	778
313.1 K, 10330 kPa, x1 = 0.1495	1022
313.1 K, 10450 kPa, x1 = 0.0245	788
313.1 K, 10600 kPa, x1 = 0.0989	927
313.1 K, 10770 kPa, x1 = 0.1495	1026
313.1 K, 10840 kPa, x1 = 0.0245	799
313.1 K, 11180 kPa, x1 = 0.0989	933
313.1 K, 11240 kPa, x1 = 0.1495	1030
313.1 K, 11280 kPa, x1 = 0.0245	810
313.1 K, 11690 kPa, x1 = 0.1495	1033
313.1 K, 11760 kPa, x1 = 0.0245	821
313.1 K, 11850 kPa, x1 = 0.0989	941
313.1 K, 12120 kPa, x1 = 0.1495	1036
313.1 K, 12160 kPa, x1 = 0.0989	944
313.1 K, 12320 kPa, x1 = 0.0245	833
313.1 K, 12560 kPa, x1 = 0.0989	948
313.1 K, 12600 kPa, x1 = 0.1495	1040
313.1 K, 12960 kPa, x1 = 0.0245	845
313.1 K, 13090 kPa, x1 = 0.1495	1044
313.1 K, 13640 kPa, x1 = 0.1495	1047
313.1 K, 13700 kPa, x1 = 0.0245	857
313.1 K, 14170 kPa, x1 = 0.1495	1051
313.1 K, 14530 kPa, x1 = 0.0245	870
313.1 K, 14740 kPa, x1 = 0.1495	1056
313.1 K, 14980 kPa, x1 = 0.0245	876
313.1 K, 15070 kPa, x1 = 0.1495	1058
313.1 K, 15150 kPa, x1 = 0.0245	879
313.1 K, 15320 kPa, x1 = 0.1495	1060
316.1 K, 8270 kPa, x1 = 0.0245	528
316.1 K, 8280 kPa, x1 = 0.0245	532
316.1 K, 8300 kPa, x1 = 0.0245	537
316.1 K, 8320 kPa, x1 = 0.0245	543
316.1 K, 8340 kPa, x1 = 0.0245	549
316.1 K, 8360 kPa, x1 = 0.0245	556
316.1 K, 8380 kPa, x1 = 0.0245	562
316.1 K, 8410 kPa, x1 = 0.0245	572
316.1 K, 8460 kPa, x1 = 0.0245	582
